# Test results: ChEMBL document CHEMBL3872247, “Discovery of dual positive allosteric modulators (PAMs) of the metabotropic glutamate 2 receptor and CysLT1 antagonists for treating migraine headache” (Bioorg Med Chem Lett, 2017)
# Assays:
# [1] = biological target: Metabotropic glutamate receptor 2 (Homo sapiens, UniProt Q14416); assay: Positive allosteric modulation of recombinant human mGlu2 receptor expressed in hamster AV12 cells expressing EAAT1 assessed as potentiation of glutamate-induced intracellular calcium level measured after 24 to 48 hrs by FLIPR assay relative to glutamate; type: functional, cell-based
# [2] = biological target: T1, Cysteinyl leukotriene receptor 1 (Homo sapiens, UniProt Q9Y271); assay: Antagonist activity at human CysLT1 receptor expressed in Syrian hamster AV12-664 cells assessed as decrease in LTD4-induced intracellular calcium level pretreated followed by LTD4 addition by fluo-3 dye based FLIPR assay; type: functional, cell-based
# T1 sequence (Q9Y271 whole entry): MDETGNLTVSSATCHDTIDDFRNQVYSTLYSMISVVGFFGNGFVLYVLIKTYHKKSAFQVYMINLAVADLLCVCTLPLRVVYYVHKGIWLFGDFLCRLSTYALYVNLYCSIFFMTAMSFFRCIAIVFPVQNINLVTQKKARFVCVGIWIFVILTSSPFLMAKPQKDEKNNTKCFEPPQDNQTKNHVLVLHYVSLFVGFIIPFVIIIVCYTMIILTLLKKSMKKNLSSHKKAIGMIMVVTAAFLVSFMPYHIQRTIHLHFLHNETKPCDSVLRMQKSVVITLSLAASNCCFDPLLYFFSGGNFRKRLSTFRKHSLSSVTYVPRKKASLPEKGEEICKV
# Rattus norvegicus [3] = assay: Decrease in plasma protein extravasation in fasted Harlan Sprague-Dawley rat model of migraine compound administered via oral gavage 1 hr prior to electrical stimulation of trigeminal ganglion measured after 15 mins by FITC-BSA based fluorescence assay; type: functional
# [4] = Cmax in rat at 1 mg/kg, iv; type: ADME, organism-based; set-up: dose 1 mg/kg, route intravenous; details: in vivo
# [5] = Half life in rat at 1 mg/kg, iv; type: ADME, organism-based; details: in vivo
# [6] = Volume of distribution in dog at 0.5 mg/kg, iv; type: ADME, organism-based, Canis lupus familiaris; details: in vivo
# [7] = Half life in dog at 1 mg/kg, po; type: ADME, organism-based, Canis lupus familiaris; details: in vivo
# [8] = biological target: Metabotropic glutamate receptor 1 (Homo sapiens, UniProt Q13255); assay: Antagonist activity at recombinant human mGlu1 receptor expressed in hamster AV12 cells expressing EAAT1 assessed as inhibition of glutamate-induced intracellular Ca2+ level measured after 24 hrs by FLIPR assay; type: functional, cell-based
# [9] = biological target: T2, Metabotropic glutamate receptor 3 (Homo sapiens, UniProt Q14832); assay: Positive allosteric modulation of recombinant human mGlu3 expressed in hamster AV12 cells expressing EAAT1 assessed as potentiation of glutamate-induced intracellular Ca2+ level measured after 24 hrs by FLIPR assay; type: functional, cell-based
# T2 sequence (Q14832 whole entry): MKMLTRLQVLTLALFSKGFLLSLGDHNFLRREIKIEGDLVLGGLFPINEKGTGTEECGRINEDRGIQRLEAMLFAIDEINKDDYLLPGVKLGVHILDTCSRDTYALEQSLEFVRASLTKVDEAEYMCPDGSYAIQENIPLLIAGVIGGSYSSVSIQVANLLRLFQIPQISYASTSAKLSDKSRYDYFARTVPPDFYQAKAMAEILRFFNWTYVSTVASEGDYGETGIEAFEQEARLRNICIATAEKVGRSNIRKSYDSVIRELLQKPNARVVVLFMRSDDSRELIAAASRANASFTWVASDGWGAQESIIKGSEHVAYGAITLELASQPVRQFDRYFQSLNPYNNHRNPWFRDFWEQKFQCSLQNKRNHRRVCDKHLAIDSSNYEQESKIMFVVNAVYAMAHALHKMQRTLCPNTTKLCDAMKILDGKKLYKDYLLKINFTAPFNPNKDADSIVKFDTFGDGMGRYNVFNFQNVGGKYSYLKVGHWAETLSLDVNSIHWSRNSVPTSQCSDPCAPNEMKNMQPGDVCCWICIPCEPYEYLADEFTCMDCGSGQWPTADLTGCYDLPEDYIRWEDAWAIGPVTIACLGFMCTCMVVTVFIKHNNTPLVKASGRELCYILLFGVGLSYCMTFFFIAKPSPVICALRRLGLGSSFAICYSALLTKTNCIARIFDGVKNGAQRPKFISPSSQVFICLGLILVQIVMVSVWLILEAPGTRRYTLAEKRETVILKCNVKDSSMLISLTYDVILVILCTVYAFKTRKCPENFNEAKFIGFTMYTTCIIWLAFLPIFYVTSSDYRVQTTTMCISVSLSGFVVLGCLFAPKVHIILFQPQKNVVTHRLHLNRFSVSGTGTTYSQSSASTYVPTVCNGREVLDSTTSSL
# [10] = biological target: T2, Metabotropic glutamate receptor 3; assay: Antagonist activity at recombinant human mGlu3 receptor expressed in hamster AV12 cells expressing EAAT1 assessed as inhibition of glutamate-induced intracellular Ca2+ level measured after 24 hrs by FLIPR assay; type: functional, cell-based
# [11] = biological target: Metabotropic glutamate receptor 4 (Homo sapiens) (UniProt Q14833); assay: Positive allosteric modulation of recombinant human mGlu4 receptor expressed in hamster AV12 cells expressing EAAT1 assessed as potentiation of glutamate-induced intracellular Ca2+ level at 20 uM after 24 hrs by FLIPR assay; type: functional, cell-based
# Sequence of Metabotropic glutamate receptor 4 (Homo sapiens) (Q14833 whole entry): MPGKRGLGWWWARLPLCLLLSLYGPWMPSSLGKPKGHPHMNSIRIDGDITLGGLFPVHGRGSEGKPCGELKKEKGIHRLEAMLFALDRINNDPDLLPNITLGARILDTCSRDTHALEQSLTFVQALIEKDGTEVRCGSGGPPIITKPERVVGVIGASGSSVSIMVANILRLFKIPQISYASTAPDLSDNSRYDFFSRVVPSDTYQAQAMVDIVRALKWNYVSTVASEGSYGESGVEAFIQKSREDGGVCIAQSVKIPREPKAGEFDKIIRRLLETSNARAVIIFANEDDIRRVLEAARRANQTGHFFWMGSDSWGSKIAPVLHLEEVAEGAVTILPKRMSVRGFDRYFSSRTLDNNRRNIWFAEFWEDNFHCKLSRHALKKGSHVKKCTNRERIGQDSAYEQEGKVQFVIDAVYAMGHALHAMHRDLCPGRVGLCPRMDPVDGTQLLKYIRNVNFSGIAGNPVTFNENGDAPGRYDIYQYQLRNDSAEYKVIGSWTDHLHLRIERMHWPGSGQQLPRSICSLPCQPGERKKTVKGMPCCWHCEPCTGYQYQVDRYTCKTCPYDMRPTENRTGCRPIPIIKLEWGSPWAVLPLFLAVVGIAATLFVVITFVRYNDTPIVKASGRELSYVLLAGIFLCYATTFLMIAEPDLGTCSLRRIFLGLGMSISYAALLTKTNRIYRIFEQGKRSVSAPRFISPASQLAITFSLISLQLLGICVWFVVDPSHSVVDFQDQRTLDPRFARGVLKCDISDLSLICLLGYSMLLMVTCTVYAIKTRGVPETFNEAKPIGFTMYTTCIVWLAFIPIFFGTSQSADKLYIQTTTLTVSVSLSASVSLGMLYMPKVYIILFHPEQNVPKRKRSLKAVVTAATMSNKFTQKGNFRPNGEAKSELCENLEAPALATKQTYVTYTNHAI
# [12] = biological target: Metabotropic glutamate receptor 5 (Homo sapiens, UniProt P41594); assay: Positive allosteric modulation of recombinant human mGlu5 expressed in hamster AV12 cells expressing EAAT1 assessed as potentiation of glutamate-induced intracellular Ca2+ level measured after 24 hrs by FLIPR assay; type: functional, cell-based
# [13] = biological target: Metabotropic glutamate receptor 8 (Homo sapiens) (UniProt O00222); assay: Agonist activity at recombinant human mGlu8 expressed in hamster AV12 cells expressing EAAT1 assessed as increase in intracellular Ca2+ level at 30 uM after 24 hrs by FLIPR assay; type: functional, cell-based
# Cytochrome P450 2D6 = Cytochrome P450 2D6 (Homo sapiens, UniProt P10635); assay: Inhibition of CYP2D6 (unknown origin); type: ADME
# Sequence of Cytochrome P450 2D6 (P10635 whole entry): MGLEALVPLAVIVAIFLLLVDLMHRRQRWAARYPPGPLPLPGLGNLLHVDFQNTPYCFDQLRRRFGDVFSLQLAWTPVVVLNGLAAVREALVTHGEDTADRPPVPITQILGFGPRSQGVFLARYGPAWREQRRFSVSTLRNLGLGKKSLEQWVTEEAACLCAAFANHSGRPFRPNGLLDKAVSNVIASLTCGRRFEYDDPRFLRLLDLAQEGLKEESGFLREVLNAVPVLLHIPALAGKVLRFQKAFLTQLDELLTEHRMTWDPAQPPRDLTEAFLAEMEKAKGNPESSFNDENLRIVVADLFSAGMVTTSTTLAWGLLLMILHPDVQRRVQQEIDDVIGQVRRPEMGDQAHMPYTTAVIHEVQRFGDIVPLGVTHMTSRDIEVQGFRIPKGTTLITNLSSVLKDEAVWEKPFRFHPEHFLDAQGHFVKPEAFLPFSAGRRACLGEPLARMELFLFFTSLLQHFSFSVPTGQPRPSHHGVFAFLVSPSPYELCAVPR
# Cytochrome P450 3A4 = Cytochrome P450 3A4 (Homo sapiens, UniProt P08684); assay: Inhibition of CYP3A4 (unknown origin); type: ADME
# [14] = Ratio of Cmax in rat to EC50 for human mGlu2 receptor expressed in hamster AV12 cells expressing EAAT1
# hERG (KCNH2) = hERG (KCNH2) (Homo sapiens, UniProt Q12809); assay: Displacement of [3H]dofetilide from recombinant human ERG expressed in HEK293 cells measured after 60 mins by scintillation counting method; type: cell-based; details: HEK293 cells expressing recombinant human ERG, probe [3H]dofetilide
# [15] = biological target: Adenosine receptor A1 (Homo sapiens) (UniProt P30542); assay: Displacement of [3H]DPCPX from human adenosine A1 receptor at 10 uM measured after 60 mins by scintillation counting method
# [16] = biological target: Adrenergic receptor alpha-1 (Rattus norvegicus) (UniProt P15823+P23944+P43140); assay: Displacement of [3H]prazosin from non-selective alpha1 adrenergic receptor in rat brain cortex at 10 uM measured after 60 mins by scintillation counting method; type: tissue-based
# Rattus norvegicus [17] = organism: Rattus norvegicus; assay: Displacement of [3H]flunitrazepam from Central-type benzodiazepine receptor in rat cerebral cortex at 10 uM measured after 60 mins by scintillation counting method
# [18] = biological target: D(1A) dopamine receptor (Homo sapiens) (UniProt P21728); assay: Displacement of [3H]SCH23390 from recombinant human dopamine D1 receptor expressed in CHO cells at 10 uM measured after 60 mins by scintillation counting method; type: cell-based
# Sequence of D(1A) dopamine receptor (Homo sapiens) (P21728 whole entry): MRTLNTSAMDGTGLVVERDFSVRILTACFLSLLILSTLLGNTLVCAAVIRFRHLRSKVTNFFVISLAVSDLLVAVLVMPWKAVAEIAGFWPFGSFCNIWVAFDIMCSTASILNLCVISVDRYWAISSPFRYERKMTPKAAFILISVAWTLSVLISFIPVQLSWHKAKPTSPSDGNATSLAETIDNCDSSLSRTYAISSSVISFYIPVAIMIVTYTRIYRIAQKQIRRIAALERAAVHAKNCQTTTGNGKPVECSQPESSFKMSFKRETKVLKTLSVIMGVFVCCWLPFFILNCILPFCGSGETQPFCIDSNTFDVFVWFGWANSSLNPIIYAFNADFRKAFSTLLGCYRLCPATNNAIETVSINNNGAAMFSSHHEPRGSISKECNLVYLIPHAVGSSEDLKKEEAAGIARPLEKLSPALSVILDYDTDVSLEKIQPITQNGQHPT
# [19] = biological target: Histamine H1 receptor (Homo sapiens) (UniProt P35367); assay: Displacement of [3H]pyrilamine from recombinant human histamine H1 receptor expressed in HEK293 cells at 10 uM measured after 60 mins by scintillation counting method; type: cell-based
# Sequence of Histamine H1 receptor (Homo sapiens) (P35367 whole entry): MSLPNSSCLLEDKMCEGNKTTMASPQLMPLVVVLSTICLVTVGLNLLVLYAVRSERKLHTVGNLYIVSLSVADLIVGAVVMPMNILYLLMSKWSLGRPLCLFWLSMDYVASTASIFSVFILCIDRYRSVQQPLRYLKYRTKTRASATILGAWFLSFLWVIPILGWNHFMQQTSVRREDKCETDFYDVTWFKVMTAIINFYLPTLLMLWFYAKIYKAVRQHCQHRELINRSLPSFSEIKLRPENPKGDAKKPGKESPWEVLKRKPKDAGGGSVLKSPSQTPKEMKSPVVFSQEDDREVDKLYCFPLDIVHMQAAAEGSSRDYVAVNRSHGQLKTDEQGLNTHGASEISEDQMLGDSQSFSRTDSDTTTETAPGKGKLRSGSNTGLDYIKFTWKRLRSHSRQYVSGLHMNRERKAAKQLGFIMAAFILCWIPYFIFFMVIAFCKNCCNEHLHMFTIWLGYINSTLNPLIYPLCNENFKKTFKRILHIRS
# [20] = biological target: Histamine H2 receptor (Homo sapiens) (UniProt P25021); assay: Displacement of [125I]APT from recombinant human histamine H2 receptor expressed in HEK293 cells at 10 uM measured after 120 mins by scintillation counting method; type: cell-based
# Sequence of Histamine H2 receptor (Homo sapiens) (P25021 whole entry): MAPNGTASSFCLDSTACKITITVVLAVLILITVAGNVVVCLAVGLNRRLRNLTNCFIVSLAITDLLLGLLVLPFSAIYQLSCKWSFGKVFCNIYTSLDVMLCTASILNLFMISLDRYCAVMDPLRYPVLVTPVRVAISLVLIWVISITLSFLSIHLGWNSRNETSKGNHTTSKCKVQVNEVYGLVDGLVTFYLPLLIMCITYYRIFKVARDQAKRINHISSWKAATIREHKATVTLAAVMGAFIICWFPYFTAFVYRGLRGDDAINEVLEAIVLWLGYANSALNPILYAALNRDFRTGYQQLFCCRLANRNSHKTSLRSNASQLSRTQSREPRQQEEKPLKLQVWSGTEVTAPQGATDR
# Rattus norvegicus [21] = organism: Rattus norvegicus; assay: Displacement of [3H]naloxone from opioid receptor in rat cerebral cortex at 10 uM measured after 40 mins by scintillation counting method
# Rattus norvegicus [22] = organism: Rattus norvegicus; assay: Displacement of [3H]GABA from non-selective GABA channel in rat cerebral cortex at 10 uM measured after 60 mins by scintillation counting method
# [23] = biological target: 5-hydroxytryptamine receptor 1A (Homo sapiens, UniProt P08908); assay: Activity at human 5HT1A receptor
# [24] = biological target: 5-hydroxytryptamine receptor 1D (Homo sapiens, UniProt P28221); assay: Activity at human 5HT1D receptor
# Sequence of 5-hydroxytryptamine receptor 1D (P28221 whole entry): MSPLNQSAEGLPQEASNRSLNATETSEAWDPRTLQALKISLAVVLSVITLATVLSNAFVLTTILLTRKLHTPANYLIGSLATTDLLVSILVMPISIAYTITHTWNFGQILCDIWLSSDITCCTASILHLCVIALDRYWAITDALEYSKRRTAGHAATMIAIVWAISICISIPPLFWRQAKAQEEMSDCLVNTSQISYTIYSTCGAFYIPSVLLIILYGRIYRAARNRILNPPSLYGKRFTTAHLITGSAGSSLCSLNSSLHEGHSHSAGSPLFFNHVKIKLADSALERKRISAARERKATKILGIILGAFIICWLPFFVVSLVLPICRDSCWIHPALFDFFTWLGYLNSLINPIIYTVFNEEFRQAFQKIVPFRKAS
# [25] = biological target: 5-hydroxytryptamine receptor 1F (Homo sapiens, UniProt P30939); assay: Activity at human 5HT1F receptor
# [26] = biological target: 5-hydroxytryptamine receptor 2A (Homo sapiens, UniProt P28223); assay: Activity at human 5HT2A receptor
# Sequence of 5-hydroxytryptamine receptor 2A (P28223 whole entry): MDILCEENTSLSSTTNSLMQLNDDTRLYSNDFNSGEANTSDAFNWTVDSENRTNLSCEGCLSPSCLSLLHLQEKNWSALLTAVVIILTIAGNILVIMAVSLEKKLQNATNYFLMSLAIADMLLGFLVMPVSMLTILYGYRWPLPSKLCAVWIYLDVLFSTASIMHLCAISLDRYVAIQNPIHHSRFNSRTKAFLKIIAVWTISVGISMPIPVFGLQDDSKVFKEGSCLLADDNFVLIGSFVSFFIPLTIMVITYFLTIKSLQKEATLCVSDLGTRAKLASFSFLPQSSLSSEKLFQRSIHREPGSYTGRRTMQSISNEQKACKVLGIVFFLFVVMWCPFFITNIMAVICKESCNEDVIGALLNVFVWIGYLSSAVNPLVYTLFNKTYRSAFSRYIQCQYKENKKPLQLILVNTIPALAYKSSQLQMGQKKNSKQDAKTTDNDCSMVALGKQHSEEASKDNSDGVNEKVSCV
# [27] = biological target: 5-hydroxytryptamine receptor 2B (Homo sapiens, UniProt P41595); assay: Activity at human 5T2B receptor
# [28] = biological target: 5-hydroxytryptamine receptor 4 (Homo sapiens, UniProt Q13639); assay: Displacement of human recombinant 5HT4E receptor expressed in CHO cells after 60 mins by scintillation counting method; type: cell-based
# Sequence of 5-hydroxytryptamine receptor 4 (Q13639 whole entry): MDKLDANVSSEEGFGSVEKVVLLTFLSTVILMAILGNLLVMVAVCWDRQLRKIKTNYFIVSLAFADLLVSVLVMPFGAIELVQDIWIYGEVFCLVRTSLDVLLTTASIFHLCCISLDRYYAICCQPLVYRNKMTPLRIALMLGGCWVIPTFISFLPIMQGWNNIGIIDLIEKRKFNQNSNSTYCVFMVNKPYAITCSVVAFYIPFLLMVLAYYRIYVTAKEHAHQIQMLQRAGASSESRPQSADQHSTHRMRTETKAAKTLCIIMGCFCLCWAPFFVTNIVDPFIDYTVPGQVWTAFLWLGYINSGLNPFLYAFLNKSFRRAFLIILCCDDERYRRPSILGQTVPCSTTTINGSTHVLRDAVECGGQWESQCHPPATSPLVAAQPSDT
# [29] = Ratio of drug level in brain to plasma in rat at 15 mg/kg, po; type: ADME, organism-based
structure (smiles),measurement,setting,value
CC(=O)c1ccc(OCc2ccc(Oc3cc(-c4nn[nH]n4)ccn3)cc2)c(C)c1O,Emax,[1],107%
same,IC50,[2],0.0241 µM
same,Activity,Rattus norvegicus [3],Dose-dependent effect
same,ID100,Rattus norvegicus [3],1 µg/kg
same,Cmax,[4],2160 ng/mL
same,half-life,[5],2 h
same,Vd,[6],2 L/kg
same,half-life,[7],1 h
same,IC50,[8],> 8 µM
same,EC50,[9],> 12.5 µM
same,IC50,[10],> 12.5 µM
same,Activity,[11],< 40%
same,EC50,[12],> 12.5 µM
same,Activity,[13],< 20%
same,INH,Cytochrome P450 2D6,> 40 µM
same,INH,Cytochrome P450 3A4,> 40 µM
same,Ratio,[14],0.65
same,inhibition at 1 h,hERG (KCNH2),< 15%
same,inhibition,[15],-4.5%
same,inhibition,[16],5.3%
same,inhibition,Rattus norvegicus [17],5.2%
same,inhibition,[18],6.4%
same,inhibition,[19],0.7%
same,inhibition,[20],10.2%
same,inhibition,Rattus norvegicus [21],15.1%
same,inhibition,Rattus norvegicus [22],-6%
same,Ki,[23],> 3.02 µM
same,Ki,[24],> 2.4 µM
same,Ki,[25],> 2.97 µM
same,Ki,[26],> 7.47 µM
same,Ki,[27],> 3.3 µM
same,Ki,[28],> 6.31 µM
same,BPR,[29],< 1%
